What was measured:
[1] = biological target: T1, CaV2.2 (N-type) calcium channel (Rattus norvegicus, UniProt Q02294); assay: patch-clamp in HEK293 cells expressing the channel, Vh -50 mV ([…] at -80 mV); format: cell-based
T1 construct: gene Cacna1b

CaV1.2 = test system: T2, CaV1.2; assay: patch-clamp of heterologously expressed channel, Vh -80 mV ([…] at -50 mV); format: cell-based
T2 construct: gene CACNA1C

T1 sequence (Q02294 whole entry): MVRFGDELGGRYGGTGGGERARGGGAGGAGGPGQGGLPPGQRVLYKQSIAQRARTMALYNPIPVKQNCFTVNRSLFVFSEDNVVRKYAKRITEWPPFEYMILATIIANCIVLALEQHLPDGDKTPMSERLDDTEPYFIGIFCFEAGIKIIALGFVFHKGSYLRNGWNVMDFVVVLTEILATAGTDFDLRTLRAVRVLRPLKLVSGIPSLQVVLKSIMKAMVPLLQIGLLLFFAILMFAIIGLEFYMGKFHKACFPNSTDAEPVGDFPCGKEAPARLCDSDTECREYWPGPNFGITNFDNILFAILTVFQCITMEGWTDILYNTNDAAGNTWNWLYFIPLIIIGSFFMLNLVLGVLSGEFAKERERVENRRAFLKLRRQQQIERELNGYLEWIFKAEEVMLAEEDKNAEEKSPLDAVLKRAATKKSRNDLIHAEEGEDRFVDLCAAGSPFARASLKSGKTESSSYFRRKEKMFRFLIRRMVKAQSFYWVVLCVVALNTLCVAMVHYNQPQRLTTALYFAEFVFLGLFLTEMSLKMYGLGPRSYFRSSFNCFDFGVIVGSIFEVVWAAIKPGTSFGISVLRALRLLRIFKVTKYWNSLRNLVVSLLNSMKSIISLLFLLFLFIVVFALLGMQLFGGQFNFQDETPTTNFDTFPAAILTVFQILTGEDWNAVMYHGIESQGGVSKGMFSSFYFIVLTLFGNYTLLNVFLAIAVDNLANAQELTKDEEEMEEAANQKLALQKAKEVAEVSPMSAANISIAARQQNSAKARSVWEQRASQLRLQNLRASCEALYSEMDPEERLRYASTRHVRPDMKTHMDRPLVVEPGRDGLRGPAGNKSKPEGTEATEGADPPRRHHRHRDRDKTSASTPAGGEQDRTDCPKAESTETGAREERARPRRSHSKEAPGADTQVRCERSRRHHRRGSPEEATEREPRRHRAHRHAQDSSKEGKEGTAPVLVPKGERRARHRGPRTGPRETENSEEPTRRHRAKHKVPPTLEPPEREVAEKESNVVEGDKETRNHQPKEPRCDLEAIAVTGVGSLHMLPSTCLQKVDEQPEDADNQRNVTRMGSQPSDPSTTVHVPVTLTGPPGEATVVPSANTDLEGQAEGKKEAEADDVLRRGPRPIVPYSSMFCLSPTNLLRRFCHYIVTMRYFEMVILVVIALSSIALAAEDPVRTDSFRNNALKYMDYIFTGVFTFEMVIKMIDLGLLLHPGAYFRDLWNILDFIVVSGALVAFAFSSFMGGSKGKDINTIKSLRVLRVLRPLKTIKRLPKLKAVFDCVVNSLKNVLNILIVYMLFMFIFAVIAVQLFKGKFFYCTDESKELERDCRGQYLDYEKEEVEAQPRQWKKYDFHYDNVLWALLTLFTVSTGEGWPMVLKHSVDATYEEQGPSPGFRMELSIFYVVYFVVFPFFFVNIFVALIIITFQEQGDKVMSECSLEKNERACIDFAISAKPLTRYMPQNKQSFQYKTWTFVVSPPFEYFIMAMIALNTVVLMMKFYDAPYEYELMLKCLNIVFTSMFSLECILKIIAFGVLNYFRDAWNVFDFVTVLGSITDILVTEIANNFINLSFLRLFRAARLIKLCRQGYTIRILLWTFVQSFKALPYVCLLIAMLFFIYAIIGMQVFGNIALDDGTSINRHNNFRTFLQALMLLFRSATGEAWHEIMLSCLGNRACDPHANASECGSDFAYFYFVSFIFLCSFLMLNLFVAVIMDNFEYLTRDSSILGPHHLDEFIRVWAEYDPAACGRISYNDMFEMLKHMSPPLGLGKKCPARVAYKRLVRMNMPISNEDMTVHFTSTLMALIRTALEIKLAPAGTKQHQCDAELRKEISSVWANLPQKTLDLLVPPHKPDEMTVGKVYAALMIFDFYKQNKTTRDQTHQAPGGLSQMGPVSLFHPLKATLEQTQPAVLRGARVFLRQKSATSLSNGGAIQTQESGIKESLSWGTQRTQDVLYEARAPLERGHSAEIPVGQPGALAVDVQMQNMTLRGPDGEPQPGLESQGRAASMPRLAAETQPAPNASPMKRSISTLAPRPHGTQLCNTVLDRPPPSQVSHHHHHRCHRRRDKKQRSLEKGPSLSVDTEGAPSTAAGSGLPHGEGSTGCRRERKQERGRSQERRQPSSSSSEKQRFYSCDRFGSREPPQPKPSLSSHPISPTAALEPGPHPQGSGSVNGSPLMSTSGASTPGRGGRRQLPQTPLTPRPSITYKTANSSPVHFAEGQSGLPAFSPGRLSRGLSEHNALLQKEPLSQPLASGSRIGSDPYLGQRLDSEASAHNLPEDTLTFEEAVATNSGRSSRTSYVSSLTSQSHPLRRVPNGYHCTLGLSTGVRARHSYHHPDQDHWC

Compound: COc1ccc(OCC(O)CNC2CCCC2)c(C(C)(C)C)c1 (racemic) [C2230, 1-(2-tert-butyl-4-methoxyphenoxy)-3-(cyclopentylamino)propan-2-ol]
- IC50 [1]: 1.3 ± 0.1 µM
- IC50 (CaV1.2): 22.7 ± 6.3 µM
